From patent publication US20080003634A1, “Extended Primary Retinal Cell Culture and Stress Models, and Methods of Use” (ACUCELA, INC., priority 2003, published 2008)

Experiments:
[1] = tested on: rhodopsin-expressing photoreceptors; assay: EPO effect on photoreceptor survival under A2E stress in retinal cell culture; type: cell-based, Porcine; conditions: A2E 25 μM for 24 hours, no EPO; FIG. 13
From the text: (§1) Porcine eyes were obtained from Kapowsin Meats, Inc. (Graham, Wash.). Eyes were enucleated, and muscle and tissue were cleaned away from the orbit. Eyes were cut in half along their equator and the neural retina was dissected from the anterior part of the eye in buffered saline solution, according to standard methods known in the art. Briefly, the retina, ciliary body, and vitreous were dissected away from the anterior half of the eye in one piece, and the retina was gently detached from the clear vitreous. Each retina was dissociated with papain (Worthington Biochemical Corporation, Lakewood, N.J.), followed by inactivation with fetal bovine serum (FBS) and addition of 134 Kunitz units/ml of DNaseI. […]
(§2) Cultures were analyzed by counting rhodopsin-labeled photoreceptors and NFM-labeled ganglion cells using an Olympus IX81 or CZX41 microscope (Olympus, Tokyo, Japan). Twenty fields of view were counted per coverslip with a 20× objective lens. Six coverslips were analyzed by this method for each condition in each experiment. Cells that were not exposed to either EPO or to any stressor were counted, and cells exposed to a stressor with or without treatment with EPO were normalized to the number of cells in the control. […]

[2] = tested on: rhodopsin-expressing photoreceptors; assay: A2E-induced stress, rhodopsin-labeled photoreceptor count in mature retinal cell culture; type: cell-based, Porcine
From the text: as §1
as §2, with “to” for “to either EPO or to”, “stressor” for “stressor with or without treatment with EPO”
(§3) Immunocytochemical analysis was performed and the data analyzed as described in Examples 1 and 2.

[3] = tested on: NFM-expressing ganglion cells; assay: A2E-induced stress, NFM-labeled ganglion cell count in mature retinal cell culture; type: cell-based, Porcine
From the text: as §1
as §2, with “to” for “to either EPO or to”, “stressor” for “stressor with or without treatment with EPO”
as §3

[4] = tested on: bovine retinal pigment epithelial cells; conditions: bovine RPE cells; cited from earlier work

Compound: CC(C=CC1=C(C)CCCC1(C)C)=CC=CC(C)=Cc1cc(C=CC=C(C)C=CC2=C(C)CCCC2(C)C)cc[n+]1CCO [A2E, N-retinylidene-N-retinyl-ethanolamine]
- total live cell count of rhodopsin-expressing photoreceptors after stress versus before stress [1]: much smaller
- death of photoreceptor cells compared to photoreceptor cells not exposed to A2E ([2]; 20 μM A2E for 48 hours): more than 90%
- number of rhodopsin-expressing photoreceptors ([2]; varying concentrations of A2E (0, 10, 20, 40 μM), 24 hours, FIG. 7): showed a dose response
- survival of ganglion cells ([3]; 20 μM A2E for 48 hours): not adversely affected
- number of NFM-expressing ganglion cells versus no stress ([3]; 20 μM A2E, 24 hours, FIG. 8): not statistically different

Compound: c1ccc2c(c1)cc1ccc3cccc4ccc2c1c34 [benzo(a)pyrene]
- growth and replication of the cells [4]: appeared to inhibit growth and replication
